The supplement of paper PMC10307832

Tests used:
Experiment in all cases: relative viability (nuclei count vs DMSO), 5 days (fraction); higher = more cells survive
TPCA-1 + Dasatinib = compound: C1=CC(=CC=C1C2=CC(=C(S2)NC(=O)N)C(=O)N)F [TPCA-1] + Cc1nc(Nc2ncc(C(=O)Nc3c(C)cccc3Cl)s2)cc(N2CCN(CCO)CC2)n1 [Dasatinib] (partner 0.075 µM)
Outline: (§1)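 A single step with final 0.05% Triton X-100, 1% formaldehyde and 1 ug/ml Hoechst fixed the cells and stained nuclei 5 days after treatment. Lung cancer cell lines in 1536-well plates had been treated by pin tool the day after seeding with one drug alone or a fixed anchor-drug dose plus five library-drug doses (not always all listed) in √10 steps, and nuclei were counted on 4× images. Relative viability is the ratio of nuclei in treated wells to nuclei in vehicle wells, taken as the median of duplicate plates.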

[1] = compound: C[C@]12O[C@H](C[C@]1(O)CO)n1c3ccccc3c3c4c(c5c6ccccc6n2c5c31)CNC4=O [Lestaurtinib] + CC(=O)Nc1cccc(-n2c(=O)n(C3CC3)c(=O)c3c(Nc4ccc(I)cc4F)n(C)c(=O)c(C)c32)c1 [Trametinib] (partner 0.02 µM)
Outline: as §1

[2] = compound: C1/C(=C\C2=CC=CS2)/C(=O)/C(=C/C3=CC=CS3)/C1 + Nc1ncn([C@H]2C[C@H](O)[C@@H](CO)O2)c(=O)n1 [Decitabine] (partner 2 µM)
Outline: as §1

[3] = compound: C[C@]12O[C@H](C[C@]1(O)CO)n1c3ccccc3c3c4c(c5c6ccccc6n2c5c31)CNC4=O [Lestaurtinib] + CC(C)C[C@H](NC(=O)[C@H](Cc1ccccc1)NC(=O)c1cnccn1)B(O)O [Bortezomib] (partner 0.002 µM)
Outline: as §1

Cell Line | relative viability (TPCA-1 + Dasatinib; first compound 0.04 µM) | relative viability (TPCA-1 + Dasatinib; first compound 0.1265 µM) | relative viability (TPCA-1 + Dasatinib; first compound 0.4 µM) | relative viability (TPCA-1 + Dasatinib; first compound 1.265 µM) | relative viability (TPCA-1 + Dasatinib; first compound 4 µM) | relative viability ([1]; first compound 0.005 µM) | relative viability ([1]; first compound 0.01581 µM) | relative viability ([1]; first compound 0.05 µM) | relative viability ([1]; first compound 0.1581 µM) | relative viability ([1]; first compound 0.5 µM) | relative viability ([2]; first compound 0.2 µM) | relative viability ([2]; first compound 0.6325 µM) | relative viability ([2]; first compound 2 µM) | relative viability ([2]; first compound 6.325 µM) | relative viability ([2]; first compound 20 µM) | relative viability ([3]; first compound 0.005 µM) | relative viability ([3]; first compound 0.01581 µM) | relative viability ([3]; first compound 0.05 µM) | relative viability ([3]; first compound 0.1581 µM) | relative viability ([3]; first compound 0.5 µM)
NCI-H2085 | 0.267 | 0.262 | 0.246 | 0.265 | 0.257 | 0.476 | 0.514 | 0.558 | 0.652 | 0.46 | 0.56 | 0.544 | 0.597 | 0.498 | 0.508 | 1 | 0.969 | 0.973 | 1.33 | 0.803
PC-14 | 0.324 | 0.245 | 0.283 | 0.144 | 0.0724 | 0.793 | 0.787 | 0.701 | 0.548 | 0.0827 | 0.224 | 0.242 | 0.233 | 0.2 | 0.216 | 0.993 | 0.778 | 0.83 | 0.623 | 0.434
HOP-62 | 0.874 | 0.642 | 0.689 | 0.539 | 0.671 | 0.409 | 0.446 | 0.389 | 0.351 | 0.319 | 0.211 | 0.202 | 0.199 | 0.221 | 0.202 | 0.863 | 0.707 | 0.913 | 1.42 | 0.696
NCI-H2087 | 1.15 | 0.658 | 0.816 | 0.745 | 0.397 | 0.201 | 0.264 | 0.203 | 0.23 | 0.187 | 0.251 | 0.286 | 0.36 | 0.305 | 0.224 | 0.882 | 0.936 | 0.745 | 0.764 | 0.354
PC-3 [JPC-3] | 0.959 | 0.99 | 1.04 | 0.943 | 0.999 | 0.766 | 0.709 | 0.779 | 0.575 | 0.585 | – | 0.792 | 0.849 | 0.694 | 0.815 | 0.82 | 0.788 | 0.738 | 0.914 | 0.746
H3255 | 0.421 | 0.352 | 0.431 | 0.305 | 0.301 | 0.587 | 0.787 | 0.496 | 0.546 | 0.386 | 0.81 | 0.538 | 0.527 | 0.55 | 0.494 | 0.773 | 0.982 | 0.648 | 0.903 | 0.351
EMC-BAC-2 | 0.364 | 0.352 | 0.368 | 0.46 | 0.343 | 0.926 | 0.905 | 0.973 | 0.748 | 0.415 | 1 | 0.968 | 1.03 | 0.909 | 0.924 | 1.1 | 1.11 | 0.942 | 0.678 | 0.279
NCI-H650 | 0.464 | 0.436 | 0.409 | 0.321 | 0.332 | 0.88 | 1.03 | 0.886 | 0.522 | 0.34 | 0.311 | 0.293 | 0.293 | 0.307 | 0.306 | 0.651 | 1.03 | 0.678 | 0.452 | 0.314
NCI-H1355 | 0.836 | 0.652 | 0.716 | 0.599 | 0.519 | 0.481 | 0.435 | 0.359 | 0.318 | 0.285 | 0.369 | 0.388 | 0.319 | 0.304 | 0.325 | 1.36 | 1.2 | 1.21 | 1.03 | 0.571
NCI-H838 | 0.378 | 0.259 | 0.266 | 0.247 | 0.259 | 0.559 | 0.497 | 0.486 | 0.333 | 0.0966 | 0.42 | 0.473 | 0.468 | 0.448 | 0.449 | 0.79 | 0.783 | 0.615 | 0.472 | 0.148
NCI-H1650 | 0.361 | – | 0.336 | 0.269 | 0.269 | 0.516 | 0.66 | 0.656 | 0.687 | 0.335 | 0.484 | 0.374 | 0.442 | 0.499 | 0.354 | 0.183 | 0.236 | 0.197 | 0.199 | 0.193
NCI-H322M | 0.267 | 0.261 | 0.244 | 0.281 | 0.238 | 0.507 | 0.567 | – | 0.512 | 0.672 | 0.654 | 0.63 | 0.743 | 0.654 | 0.678 | 1.25 | 1.34 | 1.13 | 0.588 | 0.967
NCI-H661 | 1 | 0.838 | 0.928 | 0.806 | 0.394 | 0.609 | 0.633 | 0.508 | 0.607 | 0.321 | 0.605 | 0.567 | 0.56 | 0.475 | 0.496 | 0.736 | 0.813 | 0.831 | 0.685 | 0.436
NCI-H520 | 0.219 | 0.187 | 0.223 | 0.18 | 0.176 | 0.715 | 0.676 | 0.534 | 0.42 | 0.211 | 0.597 | 0.518 | 0.548 | – | 0.492 | 0.712 | 0.724 | 0.282 | 0.321 | 0.224
NCI-H441 | 0.882 | 0.559 | 0.688 | 0.245 | 0.274 | 0.458 | 0.441 | 0.346 | 0.389 | 0.34 | 0.265 | 0.267 | 0.247 | 0.234 | 0.414 | 0.4 | 0.618 | 0.603 | 0.295 | 0.367
